Measurements published in patent publication US4725683A, “Fluorophenoxyphenoxypropionates and derivatives thereof” (The Dow Chemical Company, priority 1985, dated 1988).

Legend:
Experiment in all cases: Selective postemergence, track sprayer
Assay type in all cases: in vivo
Barnyardgrass = tested on: Barnyardgrass
In short: (§1)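 Visual ratings of 0 (no effect) to 100 (complete kill) are taken two weeks after spraying. Pots of grass about 10 cm high receive the chemical via track sprayer in 280.6 L/hectare water with 0.1% Tween-20 surfactant. Control pots get spray lacking toxicant.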

Blackgrass = tested on: Blackgrass
In short: as §1

Downey Brome = tested on: Downey Brome
In short: as §1

Fall Panicum = tested on: Fall Panicum
In short: as §1

Giant Foxtail = tested on: Giant Foxtail
In short: as §1

Goosegrass = tested on: Goosegrass
In short: as §1

Green Foxtail = tested on: Green Foxtail
In short: as §1

Red Top = tested on: Red Top
In short: as §1

Tall Fescue = tested on: Tall Fescue
In short: as §1

Wheat = tested on: Wheat
In short: as §1

Wild Oats = tested on: Wild Oats
In short: as §1

Wild Proso Millet = tested on: Wild Proso Millet
In short: as §1

Yellow Foxtail = tested on: Yellow Foxtail
In short: as §1

SMILES: COC(=O)[C@@H](C)Oc1ccc(Oc2ccc(Br)cc2F)cc1 [4-Bromo-(R-Enantiomer), R enantiomer of 2-[4-(4-bromo-2-fluorophenoxy)phenoxy]propionic acid methyl ester]
- Percent Control (Barnyardgrass; 0.00055 kgs/hectare): 90%
- Percent Control (Barnyardgrass; 0.0011 kgs/hectare): 80%
- Percent Control (Barnyardgrass; 0.0023 kgs/hectare): 100%
- Percent Control (Barnyardgrass; 0.0045 kgs/hectare): 100%
- Percent Control (Barnyardgrass; 0.009 kgs/hectare): 100%
- Percent Control (Barnyardgrass; 0.018 kgs/hectare): 100%
- Percent Control (Barnyardgrass; 0.035 kgs/hectare): 100%
- Percent Control (Barnyardgrass; 0.07 kgs/hectare): 100%
- Percent Control (Barnyardgrass; 0.14 kgs/hectare): 100%
- Percent Control (Barnyardgrass; 0.28 kgs/hectare): 100%
- Percent Control (Blackgrass; 0.00055 kgs/hectare): 50%
- Percent Control (Blackgrass; 0.0011 kgs/hectare): 60%
- Percent Control (Blackgrass; 0.0023 kgs/hectare): 60%
- Percent Control (Blackgrass; 0.0045 kgs/hectare): 60%
- Percent Control (Blackgrass; 0.009 kgs/hectare): 80%
- Percent Control (Blackgrass; 0.018 kgs/hectare): 100%
- Percent Control (Blackgrass; 0.035 kgs/hectare): 100%
- Percent Control (Blackgrass; 0.07 kgs/hectare): 100%
- Percent Control (Blackgrass; 0.14 kgs/hectare): 100%
- Percent Control (Blackgrass; 0.28 kgs/hectare): 100%
- Percent Control (Downey Brome; 0.00055 kgs/hectare): 0%
- Percent Control (Downey Brome; 0.0011 kgs/hectare): 0%
- Percent Control (Downey Brome; 0.0023 kgs/hectare): 0%
- Percent Control (Downey Brome; 0.0045 kgs/hectare): 0%
- Percent Control (Downey Brome; 0.009 kgs/hectare): 0%
- Percent Control (Downey Brome; 0.018 kgs/hectare): 0%
- Percent Control (Downey Brome; 0.035 kgs/hectare): 0%
- Percent Control (Downey Brome; 0.07 kgs/hectare): 0%
- Percent Control (Downey Brome; 0.14 kgs/hectare): 0%
- Percent Control (Downey Brome; 0.28 kgs/hectare): 0%
- Percent Control (Fall Panicum; 0.00055 kgs/hectare): 20%
- Percent Control (Fall Panicum; 0.0011 kgs/hectare): 30%
- Percent Control (Fall Panicum; 0.0023 kgs/hectare): 50%
- Percent Control (Fall Panicum; 0.0045 kgs/hectare): 80%
- Percent Control (Fall Panicum; 0.009 kgs/hectare): 80%
- Percent Control (Fall Panicum; 0.018 kgs/hectare): 100%
- Percent Control (Fall Panicum; 0.035 kgs/hectare): 100%
- Percent Control (Fall Panicum; 0.07 kgs/hectare): 100%
- Percent Control (Fall Panicum; 0.14 kgs/hectare): 100%
- Percent Control (Fall Panicum; 0.28 kgs/hectare): 100%
- Percent Control (Giant Foxtail; 0.00055 kgs/hectare): 80%
- Percent Control (Giant Foxtail; 0.0011 kgs/hectare): 100%
- Percent Control (Giant Foxtail; 0.0023 kgs/hectare): 100%
- Percent Control (Giant Foxtail; 0.0045 kgs/hectare): 100%
- Percent Control (Giant Foxtail; 0.009 kgs/hectare): 100%
- Percent Control (Giant Foxtail; 0.018 kgs/hectare): 100%
- Percent Control (Giant Foxtail; 0.035 kgs/hectare): 100%
- Percent Control (Giant Foxtail; 0.07 kgs/hectare): 100%
- Percent Control (Giant Foxtail; 0.14 kgs/hectare): 100%
- Percent Control (Giant Foxtail; 0.28 kgs/hectare): 100%
- Percent Control (Goosegrass; 0.00055 kgs/hectare): 0%
- Percent Control (Goosegrass; 0.0011 kgs/hectare): 0%
- Percent Control (Goosegrass; 0.0023 kgs/hectare): 0%
- Percent Control (Goosegrass; 0.0045 kgs/hectare): 20%
- Percent Control (Goosegrass; 0.009 kgs/hectare): 70%
- Percent Control (Goosegrass; 0.018 kgs/hectare): 50%
- Percent Control (Goosegrass; 0.035 kgs/hectare): 70%
- Percent Control (Goosegrass; 0.07 kgs/hectare): 70%
- Percent Control (Goosegrass; 0.14 kgs/hectare): 80%
- Percent Control (Goosegrass; 0.28 kgs/hectare): 80%
- Percent Control (Green Foxtail; 0.00055 kgs/hectare): 30%
- Percent Control (Green Foxtail; 0.0011 kgs/hectare): 70%
- Percent Control (Green Foxtail; 0.0023 kgs/hectare): 90%
- Percent Control (Green Foxtail; 0.0045 kgs/hectare): 95%
- Percent Control (Green Foxtail; 0.009 kgs/hectare): 95%
- Percent Control (Green Foxtail; 0.018 kgs/hectare): 100%
- Percent Control (Green Foxtail; 0.035 kgs/hectare): 100%
- Percent Control (Green Foxtail; 0.07 kgs/hectare): 100%
- Percent Control (Green Foxtail; 0.14 kgs/hectare): 100%
- Percent Control (Green Foxtail; 0.28 kgs/hectare): 100%
- Percent Control (Red Top; 0.00055 kgs/hectare): 0%
- Percent Control (Red Top; 0.0011 kgs/hectare): 0%
- Percent Control (Red Top; 0.0023 kgs/hectare): 0%
- Percent Control (Red Top; 0.0045 kgs/hectare): 0%
- Percent Control (Red Top; 0.009 kgs/hectare): 0%
- Percent Control (Red Top; 0.018 kgs/hectare): 0%
- Percent Control (Red Top; 0.035 kgs/hectare): 30%
- Percent Control (Red Top; 0.07 kgs/hectare): 90%
- Percent Control (Red Top; 0.14 kgs/hectare): 90%
- Percent Control (Red Top; 0.28 kgs/hectare): 90%
- Percent Control (Tall Fescue; 0.00055 kgs/hectare): 0%
- Percent Control (Tall Fescue; 0.0011 kgs/hectare): 0%
- Percent Control (Tall Fescue; 0.0023 kgs/hectare): 0%
- Percent Control (Tall Fescue; 0.0045 kgs/hectare): 20%
- Percent Control (Tall Fescue; 0.009 kgs/hectare): 50%
- Percent Control (Tall Fescue; 0.018 kgs/hectare): 70%
- Percent Control (Tall Fescue; 0.035 kgs/hectare): 80%
- Percent Control (Tall Fescue; 0.07 kgs/hectare): 90%
- Percent Control (Tall Fescue; 0.14 kgs/hectare): 90%
- Percent Control (Tall Fescue; 0.28 kgs/hectare): 90%
- Percent Control (Wheat; 0.00055 kgs/hectare): 0%
- Percent Control (Wheat; 0.0011 kgs/hectare): 0%
- Percent Control (Wheat; 0.0023 kgs/hectare): 0%
- Percent Control (Wheat; 0.0045 kgs/hectare): 0%
- Percent Control (Wheat; 0.009 kgs/hectare): 0%
- Percent Control (Wheat; 0.018 kgs/hectare): 0%
- Percent Control (Wheat; 0.035 kgs/hectare): 0%
- Percent Control (Wheat; 0.07 kgs/hectare): 0%
- Percent Control (Wheat; 0.14 kgs/hectare): 0%
- Percent Control (Wheat; 0.28 kgs/hectare): 0%
- Percent Control (Wild Oats; 0.00055 kgs/hectare): 0%
- Percent Control (Wild Oats; 0.0011 kgs/hectare): 0%
- Percent Control (Wild Oats; 0.0023 kgs/hectare): 0%
- Percent Control (Wild Oats; 0.0045 kgs/hectare): 0%
- Percent Control (Wild Oats; 0.009 kgs/hectare): 20%
- Percent Control (Wild Oats; 0.018 kgs/hectare): 20%
- Percent Control (Wild Oats; 0.035 kgs/hectare): 40%
- Percent Control (Wild Oats; 0.07 kgs/hectare): 70%
- Percent Control (Wild Oats; 0.14 kgs/hectare): 70%
- Percent Control (Wild Oats; 0.28 kgs/hectare): 95%
- Percent Control (Wild Proso Millet; 0.00055 kgs/hectare): 30%
- Percent Control (Wild Proso Millet; 0.0011 kgs/hectare): 30%
- Percent Control (Wild Proso Millet; 0.0023 kgs/hectare): 80%
- Percent Control (Wild Proso Millet; 0.0045 kgs/hectare): 100%
- Percent Control (Wild Proso Millet; 0.009 kgs/hectare): 95%
- Percent Control (Wild Proso Millet; 0.018 kgs/hectare): 100%
- Percent Control (Wild Proso Millet; 0.035 kgs/hectare): 100%
- Percent Control (Wild Proso Millet; 0.07 kgs/hectare): 100%
- Percent Control (Wild Proso Millet; 0.14 kgs/hectare): 100%
- Percent Control (Wild Proso Millet; 0.28 kgs/hectare): 100%
- Percent Control (Yellow Foxtail; 0.00055 kgs/hectare): 0%
- Percent Control (Yellow Foxtail; 0.0011 kgs/hectare): 0%
- Percent Control (Yellow Foxtail; 0.0023 kgs/hectare): 20%
- Percent Control (Yellow Foxtail; 0.0045 kgs/hectare): 20%
- Percent Control (Yellow Foxtail; 0.009 kgs/hectare): 50%
- Percent Control (Yellow Foxtail; 0.018 kgs/hectare): 90%
- Percent Control (Yellow Foxtail; 0.035 kgs/hectare): 100%
- Percent Control (Yellow Foxtail; 0.07 kgs/hectare): 100%
- Percent Control (Yellow Foxtail; 0.14 kgs/hectare): 100%
- Percent Control (Yellow Foxtail; 0.28 kgs/hectare): 100%
